# Target: T1, WT GlyT2 (Homo sapiens, UniProt Q9Y345)
# T1 sequence (Q9Y345 1-797): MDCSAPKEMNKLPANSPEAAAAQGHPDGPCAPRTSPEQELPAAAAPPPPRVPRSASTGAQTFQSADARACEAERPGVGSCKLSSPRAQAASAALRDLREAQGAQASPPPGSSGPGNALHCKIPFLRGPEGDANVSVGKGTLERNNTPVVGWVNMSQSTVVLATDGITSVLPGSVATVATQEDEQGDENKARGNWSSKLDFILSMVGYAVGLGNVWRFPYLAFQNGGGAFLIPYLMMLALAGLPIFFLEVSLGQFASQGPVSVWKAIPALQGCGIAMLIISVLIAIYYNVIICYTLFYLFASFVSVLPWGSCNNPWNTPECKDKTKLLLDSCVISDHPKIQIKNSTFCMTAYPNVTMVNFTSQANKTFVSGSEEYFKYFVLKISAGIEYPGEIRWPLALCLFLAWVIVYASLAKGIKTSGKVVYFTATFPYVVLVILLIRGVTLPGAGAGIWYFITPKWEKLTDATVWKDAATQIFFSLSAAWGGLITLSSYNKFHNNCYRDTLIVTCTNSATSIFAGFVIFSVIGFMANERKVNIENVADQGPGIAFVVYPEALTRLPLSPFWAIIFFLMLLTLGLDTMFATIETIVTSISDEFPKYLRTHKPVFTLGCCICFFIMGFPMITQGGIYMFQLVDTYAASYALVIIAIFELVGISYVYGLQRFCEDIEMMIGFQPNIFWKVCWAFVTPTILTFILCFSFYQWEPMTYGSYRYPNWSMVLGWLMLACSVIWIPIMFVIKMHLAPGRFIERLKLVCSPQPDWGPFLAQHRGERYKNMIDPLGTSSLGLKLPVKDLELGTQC
# Assay: Inhibitor concentration–responses on glycine transport currents, two-electrode voltage clamp (control and MβCD-treated oocytes)
# Format: cell-based
# Parameters: expressed in transfected cells; host or cells: Xenopus laevis oocytes injected with in vitro transcribed RNA (pOTV vector)
# Settings: for Reduction of potency after cholesterol depletion: MβCD-treated vs control oocytes
# Method: Individual oocytes were incubated at 32°C for 30 min in 15 mM MβCD or γCD, suspended in frog Ringer’s solution.
# Because of the slowly reversible nature of the compounds tested, inhibitor concentration–responses were performed cumulatively. An EC50 concentration of glycine was applied until a stable transport current was reached. EC50 concentrations of glycine were used to produce reliable currents for each transporter, and as the inhibitors are non-competitive, application of varying glycine concentrations is unlikely to affect their activity. Increasing concentrations of inhibitors were co-applied with glycine with each concentration producing a distinct plateau before the subsequent concentration was applied. Inhibitor concentration–responses were limited to a maximum concentration of 3 µM to mitigate the risk of changes to the free drug concentration because of micelle formation. Currents after the plateau of each inhibitor concentration were normalized to the current produced by application of glycine alone and fit using the method of least squares: Y=Bottom+(Top−Bottom)/(1+10^[X−LogIC50]), where X is log [inhibitor], Y is current normalized to glycine in the absence of inhibitor, and Top and Bottom are the maximal and minimal plateaus, respectively. The method of least squares was constrained to have the bottom value >0 and the hill slope as −1, enabling the calculation of IC50 values and the extent of inhibition produced by the maximal concentration applied.
# IC50 values are presented as the mean and 95% confidence interval, whereas inhibition values are presented as the mean ± SEM. Data sets are n ≥ 5 from two batches of oocytes.
# As the inhibitors assayed here are slowly reversible, inhibitor concentration–responses were unable to be performed on the same cell after treatment with MβCD. Thus, GlyT2 expression was tested by applying a maximal glycine concentration (300 µM) before treatment with MβCD to deplete membrane cholesterol. After MβCD treatment, oocytes were returned to the electrophysiology set-up and washed for 10 min in recording buffer to remove cyclodextrins. […] After successful depletion, inhibitor concentration–responses were performed as described above (see “Inhibitor concentration–response—mutagenesis” in the Materials and Methods section).
# [1] = MβCD-treated oocytes (15 mM, 30 min, 32 °C; cholesterol depleted)
# [2] = WT GlyT2 in Xenopus laevis oocytes, glycine EC50 co-applied, Table S10
# [3] = MβCD-treated oocytes (15 mM, 30 min, 32 °C), 3 µM
# [4] = WT GlyT2 in Xenopus laevis oocytes, 3 μM, Table S10
"Inhibition at 1 µM (column head 3 μM, footnote b) (MβCD-treated oocytes (15 mM, 30 min, 32 °C))",IC50 [1] [nM],Reduction of potency after cholesterol depletion,"Inhibition at 1 µM (column head 3 μM, footnote b) (WT GlyT2 in Xenopus laevis oocytes, Table S10)",IC50 [2] [nM],Inhibition at 3 μM [3] [%],Inhibition at 3 μM [4] [%],"Inhibition at 3 μM (Control oocytes, 3 µM, Table S7) [%]","IC50 (WT GlyT2 in Xenopus laevis oocytes, glycine EC50 co-applied, Table S10, listed as OLLys) [nM]",Compound
60.5 ± 5.3^b %,800,does not alter the potency,55.5 ± 5.2^b %,520,,,,,"CCCCCCCC/C=C\CCCCCCCC(=O)O[C@H](CC(=O)[O-])C[N+](C)(C)C [Oleoyl-L-Carnitine, oleoyl-L-carnitine]"
,130,does not alter the potency,,103,78 ± 4,76.2 ± 2.3,,,"CCCCCCCC/C=C\CCCCCCCC(=O)N[C@@H](Cc1c[nH]c2ccccc12)C(=O)O [Oleoyl-L-Tryptophan, oleoyl-L-tryptophan]"
,269,2.3 fold,,215,91.5 ± 1.5,86.6 ± 1.9,93.6 ± 1.9,220,"CCCCCCCC/C=C\CCCCCCCC(=O)N[C@@H](CCCCN)C(=O)O [Oleoyl-L-Lysine, oleoyl-L-lysine]"
,619,2.4 fold,,262,64.9 ± 3.8,69.4 ± 3.8,,,"CCCCCCCC/C=C\CCCCCCCC(=O)N[C@@H](CC(C)C)C(=O)O [Oleoyl-L-Leucine, oleoyl-L-leucine]"

# Source: PMC9873984, “Membrane cholesterol regulates inhibition and substrate transport by the glycine transporter, GlyT2” (Life Science Alliance, 2023)
